Patent publication US11504394B2, “Targeted ionophore-based metal delivery” (The Regents of the University of California, priority 2018, dated 2022)

Tests used:
[1] = Log P, shake-flask octanol-water partition; type: physicochemical; conditions: n-octanol / PBS (pH=7.4), error = standard deviation
Description: Log P measurements were performed with The shake-flask method based on compound partitioning between n-octanol and PBS (pH=7.4) layers. Octanol (saturated with PBS) and PBS (saturated with octanol) was obtained by vigorous mixing for one hour followed by layer separation in a separatory funnel over 24 hours. For Gal-Cu(gtsm): 500 μL of standard solutions were made with 100, 50, 20, 10, and 5 μM of Gal-Cu(gtsm) dissolved in PBS-saturated octanol. 50 mM stock solution in DMSO was diluted to 100 μM final concentration with 490/10, 480/20, and 460/40 μL of saturated octanol/PBS. For Cu(gtsm): 500 μL of standard solutions were made with 100, 50, 20, 10, and 5 μM of […]. 50 mM stock solution in DMSO was diluted to 100 μM final concentration with 10/490, […], and 50/450 μL of saturated octanol/PBS. All standards and samples were vortexed vigorously in 1.7 mL microcentrifuge tubes for 60 seconds, then spun down at 12,000 g for 2 mins in a microcentrifuge. 200 μL of each standard and sample were added to a clear 96-well plate, and the blank-subtracted absorbance at 470 nm was read in a Synergy M2 plate reader. All standards and samples were measured in duplicate. Log P values were calculated from the subsequent partition coefficients and averaged across the three partition conditions to obtain the final log P value. […]

HepG2 cells = experiment: Confocal imaging with copper sensing CF4 fluorescent probe; type: cell-based; conditions: HepG2, 100 μM Gal-Cu(gtsm) or 2 μM Cu(gtsm), 3 hours
Description: Confocal fluorescence images were acquired with a Zeiss LSM710 laser-scanning microscope with a 20× objective lens. Excitation at 543 nm for CF4 was carried out with appropriate lasers, and emission was acquired from 550 to 650 nm. HepG2 cells were plated between 50-80% confluency in 8-well glass chamber slides with gelatin coating. Cells were incubated with either vehicle, Cu(gtsm), or Gal-Cu(gtsm) for 3 hours in low glucose DMEM. The media was then aspirated and replaced with CF4 or Ctrl-CF4-S2 (2 μM freshly diluted from a 1 mM stock solution) in DPBS with calcium and magnesium, then incubated at 37° C. for 30 minutes. The buffer was then replaced with fresh DPBS (+Ca, +Mg) for imaging. Image analysis and quantification was performed using ImageJ (National Institutes of Health). Mean fluorescence intensity was analyzed with a minimum threshold of 20 pixels and maximum threshold of 255 pixels.

labile Cu^+ pool = experiment: In vivo bioluminescence imaging with CCL-1 / D-Luc, liver region; set-up: species or system FVB-luc^+ mice; conditions: 24 hours after ionophore, 0.75 mg Cu/kg i.p.
Description: A Xenogen IVIS Spectrum instrument (Caliper Life Sciences) was used for bioluminescence imaging in all animal experiments, and image analysis was performed using the Living Image software. The total photon flux for each animal was determined by drawing a region of interest around the liver and integrating photon flux over the total imaging period (area under the curve). We selected our liver region of interest based on comparing the bioluminescence data in vivo and ex vivo, as described in our previous studies with the CCL-1 probe.^27 The same region of interest around the liver was applied to analyzing both the CCL-1 and D-Luc data. The data plotted in FIG. 8A represents the ratio of CCL-1 integrated photon flux to basal D-luc integrated photon flux. Mice were anesthetized prior to injection and during imaging via inhalation of isoflurane. Isoflurane was purchased from Phoenix Pharmaceuticals, Inc. DMSO was purchased from Sigma-Aldrich, Dulbecco's phosphate buffered saline was purchased from Gibco, and medical-grade oxygen was purchased from Praxair.
FVB-luc+ mice were given intraperitoneal (i.p.) injections of vehicle (50 μL 1:1 DMSO:DPBS), 3.46 mg/kg Cu(gtsm), or 7.26 mg/kg Gal-Cu(gtsm) under anesthesia with isoflurane. The ionophore concentrations were chosen to give an equivalent copper dose of 0.75 mg Cu/kg mouse at 0.6 mg Cu/mL vehicle. […]

liver tissue = experiment: Liver tissue histology, H&E staining; type: in vivo
Description: FVB-luc+ mice were injected i.p. with vehicle (50 μL 1:1 DMSO:DPBS), Cu(gtsm), or Gal-Cu(gtsm) at a 0.75 mg Cu/kg mouse dose. After six hours, mice were euthanized with CO2 asphyxiation followed by cervical dislocation and liver tissue was extracted. Liver sections were fixed in a 10% formalin in PBS solution and sent to Histowiz Inc. (Brooklyn, N.Y.) for further processing and hematoxylin & eosin staining.

[2] = system: alanine transaminase (ALT) activity; experiment: Serum alanine transaminase (ALT) assay; type: in vivo, mice; conditions: 6 hours, 0.75 mg Cu/kg
Description: Mice were immediately euthanized by cervical dislocation.
Liver lysate (TBARS Assay via TCA Method, Cayman Chemical) and serum (BUN Assay, Invitrogen; ALT Assay, Cayman Chemical) samples were processed according to manufacturer instructions; sample concentration was selected based on initial dilution screening to fall within linear range of the standard curve. All samples were analyzed in triplicate.

ATP7B Cu export protein = experiment: Western blot ATP7B in high fat diet mice; type: in vivo
SOD = SOD assay in high fat diet mice; type: in vivo; conditions: vs untreated HFD mice

CNC1=N[N+]2=CC=[N+]3N=C(NCCOCCOCCOC4OC(CO)C(O)C(O)C4NC(C)=O)[S][Cu-2]23[S]1 (centres unmarked) [Gal-Cu(gtsm)]
log P [1]: −1.03±0.10
CF4 fluorescence (HepG2 cells): increased fluorescence
bioluminescent CCL-1/D-luc liver signal (labile Cu^+ pool): returns to basal levels
toxicity as indicated by liver histology and toxicity assays (liver tissue; 0.75 mg Cu/kg i.p.): non-toxic
H&E liver histology (liver tissue; 6 hours, 0.75 mg Cu/kg mouse): largely resemble those of the vehicle-treated control mice
serum ALT levels compared to vehicle control [2]: virtually the same
ATP7B expression (ATP7B Cu export protein): reduced expression
SOD assay, anti-oxidant activity (SOD): improved anti-oxidant activity
